Where two headings read alike, the source gives them in different places.
How the values were obtained:
PCAF [1] = target: T1, PCAF (Homo sapiens, UniProt Q92831); settings: literature (Poux et al. 2002); read-out: reported KM for AcCoA; cited from earlier work
T1 construct: purchased Enzo Life Sciences

PCAF [2] = target: T1, PCAF; assay: PCAF FLT protease protection assay; assay type: biochemical; settings: peptide 17 (1 μM), 125 nM PCAF, 2 h; read-out: KM (app) for AcCoA
Protocol: The dependence of the PCAF assay on AcCoA concentration was investigated. The assay was performed in a 384-well microplate at room temperature for 2 h in assay buffer (20 μl) using 125 nM PCAF and 1 μM peptide 17. Concentrations of AcCoA were varied from 25 μM-0.02 μM.
For AcCoA titrations, to wells containing varying concentrations of AcCoA (5 μl in assay buffer) was added 5 μl of peptide 17 in assay buffer followed by 10 μl of PCAF in assay buffer. […] Following a further 90 min incubation at room temperature, FLTs were measured. All measurements were performed in triplicate.

JHDM1A = target: T2, JHDM1A (Homo sapiens, UniProt Q9Y2K7); assay: JHDM1A FLT protease protection assay; assay type: biochemical; settings: peptide 10 1 μM, JHDM1A 150 nM, 5 h; Endo-LysC up to 120 min
T2 construct: purchased BPS BioScience (via AMSBio, UK)
T2 sequence (Q9Y2K7 1-1162): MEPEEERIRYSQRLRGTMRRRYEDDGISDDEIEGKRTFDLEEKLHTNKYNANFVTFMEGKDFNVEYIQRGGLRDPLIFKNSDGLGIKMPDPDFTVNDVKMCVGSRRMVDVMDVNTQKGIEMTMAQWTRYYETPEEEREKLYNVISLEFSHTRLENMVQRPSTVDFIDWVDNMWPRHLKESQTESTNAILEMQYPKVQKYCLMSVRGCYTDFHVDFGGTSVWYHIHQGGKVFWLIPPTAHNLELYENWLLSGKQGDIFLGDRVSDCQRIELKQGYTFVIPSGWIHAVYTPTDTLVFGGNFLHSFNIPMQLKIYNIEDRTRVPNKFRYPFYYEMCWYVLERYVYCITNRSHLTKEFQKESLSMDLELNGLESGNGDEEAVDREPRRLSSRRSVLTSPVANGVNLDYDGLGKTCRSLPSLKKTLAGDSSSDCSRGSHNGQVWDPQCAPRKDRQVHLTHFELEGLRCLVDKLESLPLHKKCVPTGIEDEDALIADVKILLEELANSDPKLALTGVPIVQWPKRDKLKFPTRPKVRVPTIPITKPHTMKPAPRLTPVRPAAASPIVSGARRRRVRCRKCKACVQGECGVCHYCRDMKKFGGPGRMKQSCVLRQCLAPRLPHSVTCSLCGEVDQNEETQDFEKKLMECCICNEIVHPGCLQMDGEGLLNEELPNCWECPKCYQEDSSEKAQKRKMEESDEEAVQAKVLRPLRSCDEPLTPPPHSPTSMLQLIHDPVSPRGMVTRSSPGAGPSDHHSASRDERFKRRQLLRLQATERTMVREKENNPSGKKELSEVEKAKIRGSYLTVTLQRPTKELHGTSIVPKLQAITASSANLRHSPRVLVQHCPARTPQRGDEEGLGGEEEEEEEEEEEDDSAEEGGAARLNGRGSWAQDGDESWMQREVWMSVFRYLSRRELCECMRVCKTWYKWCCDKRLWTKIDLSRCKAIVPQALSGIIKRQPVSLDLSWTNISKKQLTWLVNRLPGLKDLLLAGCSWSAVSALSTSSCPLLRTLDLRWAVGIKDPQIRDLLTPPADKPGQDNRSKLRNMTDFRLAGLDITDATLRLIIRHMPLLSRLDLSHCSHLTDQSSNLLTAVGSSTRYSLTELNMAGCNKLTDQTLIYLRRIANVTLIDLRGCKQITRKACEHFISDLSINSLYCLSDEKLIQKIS
Protocol: The assay was performed in a 20 μl volume in a 384-well black microplate and contained peptide 10 (1 μM) and JHDM1A enzyme (150 nM) in assay buffer (50 mM Tris, pH 7.4, 100 μM sodium ascorbate, 10 μM ammonium ferrous sulfate, 100 μM α-ketoglutarate, 0.01% Tween-20). Control wells containing peptide only were also included. After 5 h incubation at room temperature, 10 μl of Endo-LysC (30 nM) was added to the wells and the plate incubated at room temperature for up to 120 min. FLTs were then measured in triplicate on a NanoTaurus plate reader.
Assays were performed in a 384-well microplate at room temperature with an assay volume of 20 μl per well. To wells containing recombinant JHDM1A enzyme in assay buffer (10 μl) was added peptide 10 in assay buffer (10 μl). Two sets of control wells containing peptide 10 only were included. The plate was shaken and then sealed with a coverslip. The final concentration of JHDM1A in the assay was 150 nM and 1 μM for peptide 10. After incubation at room temperature for 5 h, Endo-LysC (10 μl in assay buffer; final concentration 10 nM) was added to assay wells and one set of control wells. To the other set of control wells was added 10 μl of assay buffer. Following incubation at room temperature for 120 min, the microplate was centrifuged at 500 rpm for 1 min and FLTs measured. All measurements were performed in triplicate.

T1 sequence (Q92831 whole entry): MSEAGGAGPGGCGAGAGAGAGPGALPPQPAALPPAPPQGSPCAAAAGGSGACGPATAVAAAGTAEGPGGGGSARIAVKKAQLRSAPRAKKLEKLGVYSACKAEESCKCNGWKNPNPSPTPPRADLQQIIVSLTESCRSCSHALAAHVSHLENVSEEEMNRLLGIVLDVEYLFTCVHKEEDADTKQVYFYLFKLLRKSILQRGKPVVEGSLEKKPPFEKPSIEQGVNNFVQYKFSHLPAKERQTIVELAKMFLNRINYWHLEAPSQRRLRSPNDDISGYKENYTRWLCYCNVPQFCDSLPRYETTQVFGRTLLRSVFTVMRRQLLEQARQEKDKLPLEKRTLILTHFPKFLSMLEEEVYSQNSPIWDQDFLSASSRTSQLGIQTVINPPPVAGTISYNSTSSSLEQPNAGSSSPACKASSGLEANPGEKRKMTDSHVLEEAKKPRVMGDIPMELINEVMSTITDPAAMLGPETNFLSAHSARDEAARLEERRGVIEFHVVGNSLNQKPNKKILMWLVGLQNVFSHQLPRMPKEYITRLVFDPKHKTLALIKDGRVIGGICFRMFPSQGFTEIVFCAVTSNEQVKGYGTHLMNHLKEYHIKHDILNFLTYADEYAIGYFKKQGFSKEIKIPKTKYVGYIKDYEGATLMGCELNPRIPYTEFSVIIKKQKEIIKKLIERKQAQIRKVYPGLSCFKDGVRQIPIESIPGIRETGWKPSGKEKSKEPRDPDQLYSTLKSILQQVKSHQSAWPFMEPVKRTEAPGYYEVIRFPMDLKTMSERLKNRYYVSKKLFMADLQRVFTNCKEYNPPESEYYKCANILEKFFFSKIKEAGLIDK

| Compound | Km (PCAF [1]) [µM] | Km (PCAF [2]) [µM] | increase in FLT following protease treatment after reaction with JHDM1A (JHDM1A) |
| --- | --- | --- | --- |
| CC(=O)SCCNC(=O)CCNC(=O)[C@H](O)C(C)(C)COP(=O)(O)OP(=O)(O)OC[C@H]1O[C@@H](n2cnc3c(N)ncnc32)[C@H](O)[C@@H]1OP(=O)(O)O [AcCoA, acetyl co-enzyme A] | 1.6 | 1.2 |  |
| 9AA-ATGGVK^36(Me)K(Me)PHRYW-CONH2 [peptide 10] |  |  | over 1 ns |
